Test: Measurement of solubility with respect to cyclohexane:toluene=5:1 (by weight)
Type: physicochemical
Settings: 25° C., stirred 1 hour, 0.45 μm filter
Protocol: 1.0 g of hydrophilic compound SPA-K, namely, potassium 3-acryloyloxypropylsulfonate (or potassium 3-sulfopropylacrylate salt) as a constituent for the concentration-gradient films according to the invention was added to 10.0 g of a mixture solution including 8.3 g of cyclohexane and 1.7 g of toluene. The mixture was stirred at 25° C. for 1 hour and was filtered through a 0.45 μm membrane filter.
The filtrate was placed onto an evaporation dish, heated at 150° C. for 2 hours, and cooled to room temperature. The weight of the residue was measured.
Lastly, the solubility with respect to cyclohexane:toluene=5:1 (by weight) was calculated using the following equation.
Solubility (wt %)=Weight of residue (g)/{10.0 (g)+Weight of residue (g)}×100

Structure (SMILES): C=CC(=O)OCCCS(=O)(=O)[O-].[K+] [SPA-K, potassium 3-acryloyloxypropylsulfonate]
- Solubility with respect to cyclohexane:toluene=5:1 (by weight): < 1 wt %

Source: patent US20180163056A1, “HYDROPHILIC CURABLE COMPOSITIONS” (MITSUI CHEMICALS, INC., priority 2013, published 2018)
